Experimental data taken from patent publication US9120768B2, “Compositions and methods for treatment of cystic fibrosis and diseases associated with aberrant protein cellular processing” (The Hospital for Sick Children, priority 2010, dated 2015).

Columns and labels:
delF508-CFTR [1] = biological target: T1, delF508-CFTR (Homo sapiens, UniProt P13569, DEL508-508); experiment: Short circuit current (Ussing chamber) in primary human bronchial epithelial cells; type: cell-based; design: primary cultures of human bronchial epithelia (HBE) obtained from transplant patients homozygous for the delF508 mutation; host or cells: primary human bronchial epithelial (HBE) cells from delF508/delF508 lung transplant patients; conditions: 10 μM, 48 hrs, HBE cells of delF508/delF508 patients, versus vehicle alone; FIGS. 5-7
delF508-CFTR [2] = biological target: T1, delF508-CFTR; experiment: Immunoblotting for delF508-CFTR maturation (band C); type: cell-based; design: expressed in transfected cells; host or cells: HEK293 MSR GripTite (293MSR-GT) cells, also stably expressing eYFP(H148Q/I152L); conditions: 10 μM, 48 hrs, 37° C., 293MSR-GT cells, anti-CFTR immunoblot; FIG. 2
Method: Protein expression and rescue of delF508-CFTR were validated by immunoblotting with anti-CFTR monoclonal antibodies (clone M3A7, Chemicon Cat.#MAB3480) as described previously^66. […] The rescue of delF508-CFTR was validated by Western blotting as described previously^66. […] Proteins were resolved on SDS-PAGE, transferred to nitrocellulose membranes and immunoblotted with anti-CFTR monoclonal antibodies (M3A7, 1 μg/ml) or anti-β-actin antibodies (1:10000). Membranes were washed with 5% Blotto, incubated with HRP-conjugated goat anti-mouse antibody (1:5000) and washed with PBST. Signal was detected with SuperSignal West Femto reagent.

delF508-CFTR [3] = biological target: T1, delF508-CFTR; experiment: Cellomics YFP quenching assay; type: cell-based; design: expressed in transfected cells; host or cells: HEK293 MSR GripTite (293MSR-GT) cells, also stably expressing eYFP(H148Q/I152L); conditions: 10 μM, 48 hrs, 37° C., 293MSR-GT cells, stimulated with FIG; FIG. 1
Method: Cellomics YFP quenching assay was performed as described previously^66. […] After 48 hrs of incubation the medium was replaced with 152 μl of chloride solution (137 mM NaCl, 2.7 mM KCl, 0.7 mM CaCl2, 1.1 mM MgCl2, 1.5 mM KH2PO4, 8.1 mM Na2HPO4, pH 7.1), in the absence or presence of FIG (25 M Forskolin, 45 μM IBMX, 50 μM Genistein) at 37° C. After 20 min incubation, 92 μl of iodide buffer (137 mM NaI, 2.7 mM KCl, 0.7 mM CaCl2, 1.1 mM MgCl2, 1.5 mM KH2PO4, 8.1 mM Na2HPO4, pH 7.1) was added (final concentration 52 mM) and the decrease in fluorescence intensity over time was recorded using the Cellomics VTI (ThermoFisher), at 30° C. […] After two days of incubation, cells were stimulated for 20 min with FIG mixture. They were then exposed to low Cl^−/high I^− medium by replacing 137 mM Na^+Cl^− with Na^+I^−, and fluorescence quenching of the cells due to Cl^−/I^− exchange (presumably via CFTR) was monitored and quantified over time by the Cellomics VTI reader.

TAK1 = TAK1 (Homo sapiens, UniProt O43318); conditions: competitive with ATP; cited from earlier work
ERK2 = ERK2 (Homo sapiens, UniProt P28482); conditions: cited from earlier work
inflammation = conditions: animal model, topical application; cited from earlier work
293MSR-GT cells = experiment: Sensitivity of 293MSR-GT cells toward compound; conditions: compound could not be tested by YFP quenching or immunoblotting

T1 sequence (P13569 with tags, fused parts or gaps DEL508-508): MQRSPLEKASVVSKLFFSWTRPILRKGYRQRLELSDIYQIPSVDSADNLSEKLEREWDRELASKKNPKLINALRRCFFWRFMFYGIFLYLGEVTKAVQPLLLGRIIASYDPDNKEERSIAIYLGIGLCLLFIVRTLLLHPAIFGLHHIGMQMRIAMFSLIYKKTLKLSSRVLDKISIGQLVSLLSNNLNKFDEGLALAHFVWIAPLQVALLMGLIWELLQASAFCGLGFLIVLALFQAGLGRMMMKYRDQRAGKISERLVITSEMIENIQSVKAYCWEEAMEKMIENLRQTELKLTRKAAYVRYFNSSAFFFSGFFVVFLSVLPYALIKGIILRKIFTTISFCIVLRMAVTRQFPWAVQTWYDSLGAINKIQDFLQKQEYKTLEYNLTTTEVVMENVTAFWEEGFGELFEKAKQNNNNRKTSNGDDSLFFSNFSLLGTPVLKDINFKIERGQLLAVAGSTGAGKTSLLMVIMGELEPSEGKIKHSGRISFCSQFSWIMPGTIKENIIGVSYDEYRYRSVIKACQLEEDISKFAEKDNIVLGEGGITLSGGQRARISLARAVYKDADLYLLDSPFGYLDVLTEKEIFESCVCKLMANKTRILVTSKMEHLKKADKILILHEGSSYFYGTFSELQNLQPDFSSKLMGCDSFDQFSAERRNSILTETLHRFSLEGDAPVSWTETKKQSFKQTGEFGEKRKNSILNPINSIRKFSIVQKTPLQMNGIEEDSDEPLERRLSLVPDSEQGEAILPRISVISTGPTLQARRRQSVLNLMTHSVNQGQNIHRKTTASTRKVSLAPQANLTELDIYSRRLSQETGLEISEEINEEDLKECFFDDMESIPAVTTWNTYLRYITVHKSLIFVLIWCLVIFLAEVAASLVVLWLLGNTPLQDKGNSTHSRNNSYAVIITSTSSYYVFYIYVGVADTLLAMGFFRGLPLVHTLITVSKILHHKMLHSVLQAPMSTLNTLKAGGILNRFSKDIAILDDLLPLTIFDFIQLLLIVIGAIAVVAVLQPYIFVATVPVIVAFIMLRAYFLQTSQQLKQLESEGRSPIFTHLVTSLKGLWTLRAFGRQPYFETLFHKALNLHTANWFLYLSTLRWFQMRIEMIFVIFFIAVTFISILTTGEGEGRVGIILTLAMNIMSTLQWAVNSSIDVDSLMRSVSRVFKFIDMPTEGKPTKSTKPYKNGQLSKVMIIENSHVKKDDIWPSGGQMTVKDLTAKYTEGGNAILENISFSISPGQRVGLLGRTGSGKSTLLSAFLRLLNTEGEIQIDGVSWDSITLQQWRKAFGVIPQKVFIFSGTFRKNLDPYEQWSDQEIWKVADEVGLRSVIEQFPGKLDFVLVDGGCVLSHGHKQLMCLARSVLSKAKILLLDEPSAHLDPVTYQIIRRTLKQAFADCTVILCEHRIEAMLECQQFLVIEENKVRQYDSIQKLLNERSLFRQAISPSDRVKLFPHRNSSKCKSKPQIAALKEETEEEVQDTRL
TAK1, sequence (O43318 whole entry): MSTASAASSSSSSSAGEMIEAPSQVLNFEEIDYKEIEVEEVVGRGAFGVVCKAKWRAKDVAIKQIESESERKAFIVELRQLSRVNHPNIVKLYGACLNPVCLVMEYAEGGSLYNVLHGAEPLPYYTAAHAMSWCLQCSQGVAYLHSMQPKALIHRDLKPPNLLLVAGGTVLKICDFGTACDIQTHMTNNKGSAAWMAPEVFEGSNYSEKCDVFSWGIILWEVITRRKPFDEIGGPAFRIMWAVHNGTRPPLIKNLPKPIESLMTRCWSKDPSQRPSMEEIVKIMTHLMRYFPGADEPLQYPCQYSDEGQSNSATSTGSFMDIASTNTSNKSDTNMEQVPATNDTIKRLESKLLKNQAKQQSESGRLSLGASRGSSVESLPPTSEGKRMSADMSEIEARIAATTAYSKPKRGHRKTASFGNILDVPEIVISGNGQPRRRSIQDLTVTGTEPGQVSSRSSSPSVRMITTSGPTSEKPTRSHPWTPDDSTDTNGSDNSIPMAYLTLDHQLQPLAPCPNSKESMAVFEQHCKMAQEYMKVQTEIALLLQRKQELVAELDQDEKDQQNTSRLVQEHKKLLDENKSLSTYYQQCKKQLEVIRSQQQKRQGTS
TAK1, sequence (Q15750 whole entry partner): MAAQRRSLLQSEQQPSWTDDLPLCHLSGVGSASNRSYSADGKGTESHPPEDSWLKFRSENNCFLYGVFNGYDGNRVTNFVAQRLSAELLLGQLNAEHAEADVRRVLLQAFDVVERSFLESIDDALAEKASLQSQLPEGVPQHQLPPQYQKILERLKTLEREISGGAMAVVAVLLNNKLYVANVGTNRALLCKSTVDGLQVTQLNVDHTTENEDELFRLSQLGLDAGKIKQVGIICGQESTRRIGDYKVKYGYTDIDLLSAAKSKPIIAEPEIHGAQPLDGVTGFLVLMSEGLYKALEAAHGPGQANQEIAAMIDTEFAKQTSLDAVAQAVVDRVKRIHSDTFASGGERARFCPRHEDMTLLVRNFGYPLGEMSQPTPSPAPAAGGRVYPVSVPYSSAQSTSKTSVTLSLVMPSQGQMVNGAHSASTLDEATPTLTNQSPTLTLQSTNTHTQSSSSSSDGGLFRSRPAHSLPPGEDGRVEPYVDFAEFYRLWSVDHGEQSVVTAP
ERK2, sequence (P28482 whole entry, species assumed): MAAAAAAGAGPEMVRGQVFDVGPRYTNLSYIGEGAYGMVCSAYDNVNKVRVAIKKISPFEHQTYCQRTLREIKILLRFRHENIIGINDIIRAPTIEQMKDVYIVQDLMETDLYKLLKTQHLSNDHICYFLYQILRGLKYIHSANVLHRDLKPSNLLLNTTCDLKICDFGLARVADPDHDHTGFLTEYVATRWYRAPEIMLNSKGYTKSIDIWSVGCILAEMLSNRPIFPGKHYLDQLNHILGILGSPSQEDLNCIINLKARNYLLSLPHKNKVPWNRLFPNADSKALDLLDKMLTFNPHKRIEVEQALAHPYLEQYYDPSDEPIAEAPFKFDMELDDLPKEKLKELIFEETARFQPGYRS

| SMILES | delF508-CFTR chloride channel activity (short-circuit current) (delF508-CFTR [1]) | appearance of mature delF508-CFTR protein (band C) (delF508-CFTR [2]) | delF508-CFTR activity (fluorescence quenching due to Cl-/I- exchange) (delF508-CFTR [3]) | TAK1 inhibition (TAK1) | ERK2 enzyme activity inhibition (ERK2) | prevention of inflammation (inflammation) | sensitivity of 293MSR-GT cells toward compound (293MSR-GT cells) |
| --- | --- | --- | --- | --- | --- | --- | --- |
| Cc1c[nH]c(/C=C2\C(=O)Nc3ccccc32)c1CCC(=O)O [SU5402, 3-[4-methyl-2-[(Z)-(2-oxo-1H-indol-3-ylidene)methyl]-1H-pyrrol-3-yl]propanoic acid] | enhanced activity of the mutant CFTR | led to the appearance of the mature band C, similar to that seen with corr-4-a | restores delF508-CFTR activity to a level that is similar to that obtained with corr-4-a |  |  |  |  |
| COc1cc(O)c2c(c1)/C=C/C[C@H](O)[C@H](O)C(=O)/C=C\C[C@H](C)OC2=O [(5Z)-7-oxozeaenol, (3S,5Z,8S,9S,11E)-3,4,9,10-tetrahydro-8,9,16-trihydroxy-14-methoxy-3-methyl-1H-2-benzoxacyclotetradecin-1,7(8H)-dione] | enhanced activity of the mutant CFTR | led to the appearance of the mature band C, similar to that seen with corr-4-a | restores delF508-CFTR activity to a level that is similar to that obtained with corr-4-a | irreversibly inhibits TAK1 | inhibit ERK2 enzyme activity | effectively prevent inflammation in an animal model |  |
| Cc1[nH]c(/C=C2\C(=O)Nc3ccccc32)c(C)c1CCC(=O)O [SU6668, 3-[2,4-dimethyl-5-[(Z)-(2-oxo-1H-indol-3-ylidene)methyl]-1H-pyrrol-3-yl]propanoic acid] | enhanced activity of the mutant CFTR |  |  |  |  |  | increased sensitivity |
